According to patent US20210290680A1, “METHODS AND COMPOSITIONS FOR MODULATING CELLULAR AGING” (Dorian Therapeutics, Inc., priority 2019, published 2021):

Legend:
[1] = tested on: CD19.CAR T cells; assay: Apoptosis, necrosis, mitochondrial membrane potential and glutathione content (Amberglass panel); assay type: cell-based, human; conditions: for cells with low mitochondrial membrane potential (Q1) / cellular health: high mitochondrial membrane potential and high GSH content (Q2): day 15; for apoptosis: day 15, FIG. 31A top left; for necrosis: day 15, FIG. 31A top right
Method: Primary T cells were activated as described (Example 3), and transduced with a lentivirus encoding for CD19.CAR co-expressing shUSP16 #1, shUSP16 #2 or a scrambled shRNA (Control). Cells were cultured in IL-2 and sorted between days 6-13 for EGFRt. At day 15 cells were stained and analyzed by MACSQuant for apoptosis, necrosis, mitochondrial membrane potential and glutathione content (GSH). The data generation was powered by Amberglass technology made available by Mojave Bio in the form of a dehydrated panel of reagents on a 96 well plate.

[2] = tested on: LEF1; assay: qPCR of WNT pathway regulator LEF1; assay type: cell-based, human; conditions: for LEF1 expression, fold change vs Control: CD19.CAR; for LEF1 expression, fold change vs Control / LEF1 expression vs Control: day 15, n=4; for LEF1 expression vs Control: GD2.CAR
Description: Primary T cells were activated as described (Example 3), transduced with a lentivirus encoding either a shUSP16 #1, shUSP16 #2 or a non-targeting shRNA (shCtrl) and cells were selected with puromycin at day 6. At day 15 cell were collected and analyzed by qPCR for the expression of LEF1 (FIG. 16A) and TCF7 (FIG. 16B), downstream regulators of the WNT pathway. At day 20, cells were stained for CD4-PE, CD8-BV510, CD62L-Allophycocyanin and CD45RA-APC-Cy7 (Biolegend). Stem cell memory T cells (Tscm) were identified as Sytox^− GFP^+CD45RA^+CD62L^+, central memory T cells (Tcm) as Sytox^−GFP^+CD45RA^−CD62L^+, effector memory T cells (Tem) as Sytox^−GFP^+CD45RA^−CD62L^−, and terminal effector T cell (Teff) as Sytox^−GFP^+CD45RA^+CD62L^− (FIG. 17A). Cells were gated on the CD8 population. The specific increase of Tscm was shown as phenotype ratio (FIG. 17B).
Primary T cells were activated as described (Example 3), transduced with a lentivirus encoding for either a CD19.CAR or a GD2.CAR co-expressing shUSP16 #1, shUSP16 #2 or a scrambled shRNA (Control). Fifteen days post-activation, T cells were collected and qPCR performed. TaqMan probes detecting CDKN1A, CDKN2A (FIGS. 26A and 26B) (fold change GD2.CAR (n=4): CDKN1A Control vs shUSP #1: 0.4360, p<0.0001, and Control vs shUSP16 #2: 3.036, p=0.004 respectively. Fold change CD19.CAR (n=4): CDKN2a, CDKN1A Control vs shUSP #1: 0.6906, p=0.0026; 0.7228, p=0.0297 and Control vs shUSP16 #2: 0.8385, p=0.2325; 0.7017, p=0.0021), TCF7, LEF1, and Axin-2 (FIGS. 27A and B) were analyzed in GD2.CAR and CD19.CAR-expressing cells, respectively. ACTB was used as internal control. (GD2.CAR (n=4) TCF7, LEF1 and Axin-2: Control vs shUSP #1: 1.914 p=0.0512; 1.795 p=0.0323; 3.269 p=0.15 and Control vs shUSP16 #2: 1.284 p=0.0494; 1.718 p=0.0586; 2.035p=0.235, respectively. Fold change CD19.CAR (n=4): TCF7, LEF1 and Axin-2: Control vs shUSP #1: 1.528, p=0.0277; 1.82, p=0.0449; 1.998, p=0.031 and Control vs shUSP16 #2: 1.18, p=0.2002; 1.579, p=0.0632; 1.261, p=0.2382). USP16 downregulation in CAR-T cells results in a decreased expression of senescence markers and an increase in the expression of genes associated with the activation/increased signaling of the WNT pathway, indicating its importance in delaying cellular senescence and increasing self-renewal.

[3] = tested on: CHLA-55 cells; assay: CAR-T in vitro cytotoxicity assay, GD2.CAR T cells; assay type: cell-based, human; conditions: 1:5 E:T, 72 hours, n=3
Method: Primary T cells were activated as described (Example 3), transduced with a lentivirus encoding for either a CD19.CAR or a GD2.CAR co-expressing shUSP16 #1, shUSP16 #2 or a scrambled shRNA (Control). Cells were cultured in IL-2 and sorted between days 6-13 for EGFRt. At day 16 cytotoxicity assays were performed. Briefly, cells were counted and 100,000 T cells (adjusted for EGFR expression) were plated at 1:5 Effector:Target (E:T) ratio. At 72 hours, the mixture of tumor cells and T cells were collected, stained for CD3-PE, CD8-BV510, CD19- or GD2-APC, EGFR-AF488 and Sytox and counted by flow cytometry (MACSQuant, Miltenyi Biotec) (FIGS. 30A and 30B). Counting beads (CountBright Absolute Counting beads, Invitrogen) were added before acquisition and absolute number was calculated as following (number of cell events/number of bead events)×(assigned bead count of the lot (beads/50 ul)/volume of sample (ul))=concentration of sample as cells/ul). NALM cells were used as target cells for CD19.CAR T cells and CHLA-55 cells were used as target for GD2.CAR T cells. Three different primary T cell cultures were tested for CD19 and GD2 CAR.

[4] = tested on: CHLA-55 neuroblastoma cell lines; assay: In vivo anti-tumor activity of GD2.CAR T cells (circulating Gaussia luciferase); conditions: immunocompromised mice, one million GD2.CAR T cells via tail vein, n=4-6
Method: Primary T cells were activated as described (Example 3), transduced with a lentivirus encoding for either a CD19.CAR or a GD2.CAR co-expressing shUSP16 #1, shUSP16 #2, or a scrambled shRNA (Control). Cells were cultured in IL-2 and sorted between days 6-13 for EGFRt. At day 15 cells were frozen down (to mimic the clinic setting) and thawed d−1 before injection in immunocompromised mice. Immunocompromised mice (NCG (NOD CRISPR Prkdc II2r Gamma) were provided by Charles River and NSG (NOD.Cg-PrkdcIL2rg<tm1Wj1>/SzJ) were purchased from Jackson Laboratory). CHLA-55 neuroblastoma cell lines were transduced with Gaussia Luciferase and one million cells were injected via tail vein at d−7 (day minus 7).
One million of GD2.CAR T cells were infused via tail vain at day 0 and mice were weighted, and blood was collected every week (FIG. 36). Tumor growth was monitor by weekly assessment of circulating luciferase. Briefly, blood was collected and subsequently analyzed for luciferase expression using Nanolight Technologies Luciferase detection Kit. Luciferase expression (calculated as GLuc, RLU (Relative Luminescence Unit)) in the blood correlates with tumor engraftment.

Row | Substance | cells with low mitochondrial membrane potential (Q1) [1] | cellular health: high mitochondrial membrane potential and high GSH content (Q2) [1] | apoptosis [1] | necrosis [1] | LEF1 expression, fold change vs Control [2] | LEF1 expression vs Control [2] | LEF1 expression, fold increase over Control ([2]; primary T cells, day 15) | CHLA-55 residual cells [3] | T cell number [3] | CHLA-55 engraftment, luciferase expression in blood (GLuc) [4] [RLU]
1 | shUSP16 #1: shRNA targeting USP16, 5′-GACTGTAAGACTGACAATAAA-3′ (SEQ ID NO: 8), pSIH backbone or co-expressed in CAR plasmid | 7.62 percentage of cells | 89.9 | 9.40 | 4.75 | 1.82 | 1.795 | 1.650 | 159531 | 79566 | 53279
2 | shUSP16 #2: shRNA targeting USP16, 5′-TATATCAGTTCACCCGTAAT-3′ (SEQ ID NO: 9), pSIH backbone or co-expressed in CAR plasmid | 9.87 percentage of cells | 85.7 | 8.25 | 3.96 | 1.579 | 1.718 | – | 129186 | 194025 | 38968
